Target: α-glucosidase (EC3.2.1.20)
Assay: p-nitrophenyl-d-glucopyranoside hydrolysis, absorbance at […] nm, pH […] °C
Format: biochemical, Saccharomyces cerevisiae
Conditions: read-out: IC50 μM

IC50: 45.9 ± 1.98 µM
Structure (SMILES): COc1c(-c2ccc(O)c(O)c2)oc2c(O)c(O)ccc2c1=O [compound 1, 2-(3,4-dihydroxyphenyl)-7,8-dihydroxy-3-methoxy-4H-chromen-4-one]

Source: article PMC10943337 (Heliyon, 2024)
